Test results taken from US20210227824A1, “METHOD OF REDUCING CROP DAMAGE” (Bayer Aktiengesellschaft, priority 2018, published 2021).

How the values were obtained:
Assay type in all cases: in vivo
winter wheat, TRZAW [1] = experiment: Method D: safener seed treatment, herbicide and safener tank mix pre-emergence, visual % crop damage
Protocol: (§1) For the safener seed treatment, sufficient seeds were weighed into screw top glass bottles approximately twice the volume of the seeds.
(§2) The safener (mefenpyr-diethyl, formulated as suspension concentrate (SC)) was weighed out so that the required rates (g a.i./kg seed) would be obtained, dissolved in water (1 ml water per 10 g of seeds), and added to the seeds to produce a slurry.
(§3) The bottles were capped and then placed in an overhead shaker (set at medium speed for up to 1 hour) so that the seeds were evenly coated with the slurry. The bottles were uncapped and the seeds were sown as described above.
(§4) For the seed treatment process, the blind formulation (the SC formulation without the safener mefenpyr-diethyl) was used as seed treatment as described above.
(§5) The combination of herbicide and safener was applied as a tank mix.
(§6) After application, the test plants were kept in the greenhouse under good growth conditions.
(§7) Values in the table below are mean values from at least 3 replicates.

winter wheat, TRZAW [2] = experiment: Method C: safener seed treatment, herbicide and safener tank mix post-emergence, visual % crop damage
Protocol: as §1, §2, §3, §4
Post-emergence application was done when the plants had reached growth stage BBCH11.
The safener (mefenpyr-diethyl) was formulated as wettable powder (WP).
as §5, §6, §7

winter wheat, TRZAW [3] = experiment: Method A: safener seed treatment, herbicide post-emergence, visual % crop damage; settings: safener seed treatment 0.5 g/kg only, no herbicide
Protocol: as §1, §2, §3, §4
Post-emergence application of the herbicide was done when the plants had reached growth stage BBCH11.
as §6, §7

[4] = safener seed treatment 0.5 g/kg only, no herbicide

CCOC(=O)C1=NN(c2ccc(Cl)cc2Cl)C(C)(C(=O)OCC)C1 (centres unmarked) [Safener seed treatment, ethyl 1-(2,4-dichlorophenyl)-5-(ethoxycarbonyl)-5-methyl-2-pyrazoline-3-carboxylate]
% crop damage (winter wheat, TRZAW [1]; safener 200 g/ha in tank mix only, pre-emergence, 14 days after application): 5% | % crop damage (winter wheat, TRZAW [1]; [4]): 2% | % crop damage (winter wheat, TRZAW [2]; safener 200 g/ha in tank mix only, post-emergence, 14 days after application): 5% | % crop damage (winter wheat, TRZAW [2]; [4]): 0% | % crop damage (winter wheat, TRZAW [3]): 0%
